Measurements taken from patent US8686115B2, “Compositions and methods for quantitatively monitoring lipids” (The Board of Trustees of the University of Illinois, priority 2009, dated 2014).
Read-outs that look alike come from different tables or passages of the source. Values belong to the molecule of their own block, whether it stands above or below them.

Experiments:
PLCδ-PH (PLCδ PH domain) = target: T1, PLCδ-PH (PLCδ PH domain) (Homo sapiens, UniProt P51178); experiment: SPR equilibrium binding of PLCδ-PH to phosphoinositide-containing LUVs
T1 sequence (P51178 21-130 limits assumed): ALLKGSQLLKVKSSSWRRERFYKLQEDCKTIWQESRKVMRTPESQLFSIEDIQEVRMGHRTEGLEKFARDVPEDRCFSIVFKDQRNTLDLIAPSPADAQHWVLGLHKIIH
Procedure: With respect to FIG. […] The proteins were incubated with a given concentration of IP3 for 5 minutes before injecting into the SPR instrument. Kinetic SPR measurements were performed in 20 mM Tris-HCL, pH 7.4, containing 0.16 KCl. […] A lower concentration of DAN-eENTH was used than that of PLCδ PH because the former has much higher affinity that the latter.
LUVs were prepared by extrusion using a 100 nm-pore membrane. GUVs were prepared by electroformation. The lipid mixture were prepared in chloroform/methanol (3:1) at a total concentration of 0.4 mg/ml, then the lipid solution was spread onto the indium-tin oxide electrode surface and the lipid was dried under vacuum to form a uniform lipid film. Vesicles were grown in a sucrose solution (350 mM) while an electric field (3V, 20 Hz frequency) was applied for 5 hour at room temperature. After 1 to […] of sucrose-loaded GUV solution was added into a well glued onto a coverslip that was placed on the microscope stage. The well contained […] of 20 mM Tris-HCl buffer, pH 7.4, with 0.16 M KCl solution. The diameter of GUVs ranged from 5 to 30 μm.

[1] = target: T2, DAN-eENTH: epsin 1 ENTH domain variant M10C/C96A/S4W, SEQ ID NO: 2, labeled with DAN at C10 (Homo sapiens, UniProt Q9Y6I3, C96A/M10C/S4W); experiment: SPR equilibrium binding of DAN-eENTH to phosphoinositide-containing LUVs; conditions: SPR
T2 construct: The Epsin1 ENTH domain (1-158 amino acids) was subcloned; GST (C, cleaved yes); made in house; host or cells: E. coli BL21 RIL codon plus
T2 sequence (Q9Y6I3 1-158 S4W/M10C/C96A): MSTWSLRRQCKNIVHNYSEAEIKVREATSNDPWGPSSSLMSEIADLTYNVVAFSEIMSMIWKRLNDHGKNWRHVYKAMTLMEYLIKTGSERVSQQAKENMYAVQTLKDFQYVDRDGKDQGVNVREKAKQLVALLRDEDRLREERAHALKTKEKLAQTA
Excerpt: Provided herein is an ENTH domain of epsin1, which is linked to 2-dimethylamino-6-acyl-naphthalene (DAN). The ENTH domain contains 3 mutations, which are substitutions: M10C, C96A, and S4W. See SEQ ID NO:2. This DAN-eENTH (M10C, C96A, S4W) is an exceptional, high-affinity phosphatidylinositol-4,5-bisphosphate (PtdIns(4,5)P2)-binding protein.
(§1) The ENTH domain was engineered to introduce a single labeling site (M10C) on the membrane binding surface while removing an endogenous Cys (C96A). We also performed the S4W mutation to suppress its residual affinity for another lipid, phosphatidylinositol-3,4,5-trisphosphate (PtdIns(3,4,5)P3) (PtdIns(4,5)P2/PtdIns(3,4,5)P3=4 for wild type and >10 for the mutant) and to enhance the overall affinity for PtdIns(4,5)P2-containing membranes (ca. 4-fold) (Table 1).
(§2) With respect to FIG. 1, an L1 sensor chip was coated with POPC/POPS/PtdIns(4,5)P2 (77:20:3) LUVs. The proteins were incubated with a given concentration of IP3 for 5 minutes before injecting into the SPR instrument. Kinetic SPR measurements were performed in 20 mM Tris-HCL, pH 7.4, containing 0.16 KCl. […] A lower concentration of DAN-eENTH was used than that of PLCδ PH because the former has much higher affinity that the latter.
(§3) All mutations (S4W, M10C, and C96A) were performed by polymerase chain reaction mutagenesis and verified by DNA sequencing. eENTH may comprise the following sequence:
(§4) E. coli BL21 RIL codon plus (Stratagene) cells were used for protein expression. Cells were grown in Luria broth media containing 100 μg/ml of ampicillin at 37° C. 0.1 mM of Isopropyl β-D-1-thiogalactopyranoside was added to induce over-expression of recombinant proteins when the OD600 reached 0.5-0.8 and cells were grown for additional 6 to 10 hours at 25° C. Cells were harvested by centrifugation and cell pellets were resuspended in 50 mM Tris-HCl buffer (pH 7.4) containing 160 mM KCl, 1 mM phenylmethanesulphonylfluoride, and 5 mM of dithiothreitol (DTT). Cells were lysed by sonication and the lysate was collected by centrifugation at 4° C. The GST-affinity resin (GenScript) for GST-tagged proteins or nickel-nitrilotriacetic acid resin (Qiagen, Valencia, Calif.) for His6-tagged proteins was added into the cell lysate and the mixture was gently shaken for 30 minutes at 4° C. The mixture was applied to a column and the column was washed once with 50 mM Tris-HCl buffer (pH 7.4) containing 160 mM KCl and 5 mM of DTT to reduce thiol group, and washed several times with the same buffer without DTT to remove DTT. For DAN labeling, 100 μg of acrylodan was added to the column at this stage and incubated 16 hours at 4° C. The excess acrylodan was removed by washing the column with the buffer several times. Thrombin (Invitrogen) was added to column to remove the GST tag and the mixture was incubated at 4° C. for 10 hours. The labeled protein was eluted from the column by and the collected fractions were applied to ion exchange column. Purity and the concentration of the recombinant proteins were determined by sodium dodecylsulfate-polyacrylamide gel electrophoresis and bicinchoninic acid assay, respectively. The DAN labeling yield of eENTH, which was calculated as the molar ratio of DAN (determined spectrophotometrically at 391 nm using its extinction coefficient of 20,000 cm^−1 M^−1) to protein, was typically 60-70%.
LUVs were prepared by extrusion using a 100 nm-pore membrane. GUVs were prepared by electroformation. […]

[2] = target: T3, epsin 1 ENTH domain, wild type, SEQ ID NO: 1 (Homo sapiens, UniProt Q9Y6I3); experiment: SPR equilibrium binding of epsin1 ENTH domain (wild type) to phosphoinositide-containing LUVs; conditions: SPR
T3 construct: The Epsin1 ENTH domain (1-158 amino acids) was subcloned; GST (C, cleaved yes); made in house; host or cells: E. coli BL21 RIL codon plus
T3 sequence (Q9Y6I3 1-158): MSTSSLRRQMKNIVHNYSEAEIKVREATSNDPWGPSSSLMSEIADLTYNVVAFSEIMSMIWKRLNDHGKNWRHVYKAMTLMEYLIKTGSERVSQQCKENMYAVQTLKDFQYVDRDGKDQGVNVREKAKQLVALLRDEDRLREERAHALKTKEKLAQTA
Excerpt: as §1, §2
The Epsin1 ENTH domain (1-158 amino acids) was subcloned into the pGEX4T-1 vector and expressed as a […] glutathione S-transferase (GST)-tagged protein. The ENTH domain amino acid sequence is as follows:
as §4, with “Thrombin (Invitrogen) was added to column to remove the GST tag and the mixture was incubated at 4° C. for 10 hours. The labeled protein was eluted from the column by and the collected fractions were applied to ion exchange column.” left out, “60-70%. […]” for “60-70%.”

[3] = target: T4, epsin 1 ENTH domain (SEQ ID NO: 1) variant C96A (Homo sapiens, UniProt Q9Y6I3, C96A); experiment: SPR equilibrium binding of epsin1 ENTH C96A to phosphoinositide-containing LUVs
T4 construct: The Epsin1 ENTH domain (1-158 amino acids) was subcloned; GST (C, cleaved yes); made in house; host or cells: E. coli BL21 RIL codon plus
T4 sequence (Q9Y6I3 1-158 C96A): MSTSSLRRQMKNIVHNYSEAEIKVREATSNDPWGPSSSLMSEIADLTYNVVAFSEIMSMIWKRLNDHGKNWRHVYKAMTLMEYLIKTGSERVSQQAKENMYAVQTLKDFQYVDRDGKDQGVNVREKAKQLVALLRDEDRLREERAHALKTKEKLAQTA
Excerpt: as §1, §2, §3
E. coli BL21 RIL codon plus (Stratagene) cells were used for protein expression. Cells were grown in Luria broth media containing 100 μg/ml of ampicillin at 37° C. 0.1 mM of Isopropyl β-D-1-thiogalactopyranoside was added to induce over-expression of recombinant proteins when the OD600 reached 0.5-0.8 and cells were grown for additional 6 to 10 hours at 25° C. Cells were harvested by centrifugation and cell pellets were resuspended in 50 mM Tris-HCl buffer (pH 7.4) containing 160 mM KCl, 1 mM phenylmethanesulphonylfluoride, and 5 mM of dithiothreitol (DTT). Cells were lysed by sonication and the lysate was collected by centrifugation at 4° C. […] Purity and the concentration of the recombinant proteins were determined by sodium dodecylsulfate-polyacrylamide gel electrophoresis and bicinchoninic acid assay, respectively. The DAN labeling yield of eENTH, which was calculated as the molar ratio of DAN (determined spectrophotometrically at 391 nm using its extinction coefficient of 20,000 cm^−1 M^−1) to protein, was typically 60-70%. […]

NIH 3T3 cells [4] = experiment: Change of plasma membrane [PtdIns(4,5)P2]s on stimulation, quantified with DAN-eENTH; format: cell-based; conditions: 1 μM insulin
Procedure: (§5) DAN-eENTH was delivered into NIH 3T3 cells by microinjection for live cell imaging and determined cellular [PtdIns(4,5)P2] by the ratiometric analysis. The green channel (FIG. 10a) representing both PtdIns(4,5)P2-bound and free DAN-eENTH illustrates that the sensor is successfully loaded into cells and randomly distributed in the cytosol, the nucleus, and the plasma membrane. […] When [PtdIns(4,5)P2]s in the PM was determined in a time-dependent manner by either single-channel 9FB) or ratiometric (FB/FG) analysis using the calibration curve (FIG. 2c or 2d), dramatic local heterogeneity of [PtdIns(4,5)P2]s was clearly visible at a given time ((FIG. 9c). […] In FIG. 7, the different angles represent different locations in the plasma membrane. […] That is, PtdIns(4,5)P2 can be locally enriched, but only transiently, in the quiescent cells. […] Also, the change in [PtdIns(4,5)P2]s was monitored in response to physiological stimuli, ATP and insulin. […]
(§6) NIH 3T3 cells were seeded into 8-well plates and grown at 37° C. in a humidified atmosphere of 95% air and 5% CO2 in Dulbecco's modified Eagle's medium (DMEM) (Invitrogen) supplemented with 10% (v/v) fatal bovine serum (Invitrogen). […] Thus, the cellular [PtdIns(4,5)P2] was determined from the observed (FB/FG) values using the in vitro calibration curve determined using POPC/POPS/PtdIns(4,5)P2 GUVs.

[5] = Equilibrium SPR binding to other phosphoinositide vesicles; conditions: POPC/POPS/phosphoinositide (77:20:3) vesicles; no significant SPR response signal with injection of 1 μM protein
NIH 3T3 cells [6] = experiment: Cellular distribution of microinjected sensor in live cells; format: cell-based; conditions: FIG. 6
Procedure: as §5, §6

[7] = POPC/POPS/PtdIns(3,4)P2 (77:20:3) LUVs, read-out: Kd for PtdIns(3,4)P2
[8] = POPC/POPS/PtdIns(3,4,5)P3 (77:20:3) LUVs, read-out: Kd for PtdIns(3,4,5)P3

Kd (PLCδ-PH (PLCδ PH domain); [7]): 350 nM | Kd [1, 7]: 50 nM | Kd [2, 7]: 180 nM | Kd [3, 7]: 190 nM
Molecule: CCCCCCCCCCCCCCCC(=O)OC[C@H](COP(=O)(O)O[C@H]1[C@H](O)[C@@H](O)[C@H](OP(=O)(O)O)[C@@H](OP(=O)(O)O)[C@H]1O)OC(=O)CCCCCCCCCCCCCCC [PtdIns(3,4)P2]

Kd (PLCδ-PH (PLCδ PH domain); [8]): 480 nM | Kd [1, 8]: 44 nM | Kd [2, 8]: 210 nM | Kd [3, 8]: 200 nM
Molecule: CCCCCCCCCCCCCCCC(=O)OC[C@H](COP(=O)(O)O[C@H]1[C@H](O)[C@@H](OP(=O)(O)O)[C@H](OP(=O)(O)O)[C@@H](OP(=O)(O)O)[C@H]1O)OC(=O)CCCCCCCCCCCCCCC [PtdIns(3,4,5)P3, phosphatidylinositol-3,4,5-trisphosphate]

Molecule: insulin
reduction in spatially averaged [PtdIns(4,5)P2]s in the plasma membrane (NIH 3T3 cells [4]): ~10%

Kd [5]: > 1000 nM
B1: DAN-eENTH: eENTH (M10C, C96A, S4W) linked via C10 to 2-dimethylamino-6-acyl-naphthalene (DAN); PtdIns(4,5)P2 sensor (conjugate)
chain: MSTWSLRRQCKNIVHNYSEAEIKVREATSNDPWGPSSSLMSEIADLTYNVVAFSEIMSMIWKRLNDHGKNWRHVYKAMTLMEYLIKTGSERVSQQAKENMYAVQTLKDFQYVDRDGKDQGVNVREKAKQLVALLRDEDRLREERAHALKTKEKLAQTA
modifications: DAN fluorophore on Cys10; Modified ENTH domain of Epsin 1.
notes: eENTH (M10C, C96A, S4W) linked via C10 to 2-dimethylamino-6-acyl-naphthalene (DAN); PtdIns(4,5)P2 sensor
cellular localization after microinjection (NIH 3T3 cells [6]): mainly enriched in the plasma membrane

Kd [5]: > 1000 nM
B2: Wild Type: ENTH domain of epsin 1, amino acids 1-158, SEQ ID NO:1 (protein)
chain: MSTSSLRRQMKNIVHNYSEAEIKVREATSNDPWGPSSSLMSEIADLTYNVVAFSEIMSMIWKRLNDHGKNWRHVYKAMTLMEYLIKTGSERVSQQCKENMYAVQTLKDFQYVDRDGKDQGVNVREKAKQLVALLRDEDRLREERAHALKTKEKLAQTA
modifications: ENTH domain of Epsin 1.

Kd [5]: > 1000 nM
B3: C96A/S4W (eENTH): engineered ENTH domain of epsin 1 with substitutions M10C, C96A, S4W, SEQ ID NO:2 (protein)
chain: MSTWSLRRQCKNIVHNYSEAEIKVREATSNDPWGPSSSLMSEIADLTYNVVAFSEIMSMIWKRLNDHGKNWRHVYKAMTLMEYLIKTGSERVSQQAKENMYAVQTLKDFQYVDRDGKDQGVNVREKAKQLVALLRDEDRLREERAHALKTKEKLAQTA
modifications: Modified ENTH domain of Epsin 1.
